According to patent US8202513B2, “Aryl potassium channel blockers and uses thereof” (Bionomics Limited, priority 2007, dated 2012):
pEC50: −log10 of the molar value.

What follows are molecules tested against T1, human Kv1.3 ion channel (Homo sapiens, UniProt P22001) (assay: Inhibition of Kv1.3 currents, planar patch clamp). Conditions: Human Jurkat cells or CHO cells stably transfected with hKv1.3; averaged dose response data from 3 or more cells.
T1 construct: Human Jurkat cells (which endogenously express hKv1.3) or Chinese Hamster Ovary (CHO) cells stably transfected with hKv1.3 were used; endogenous in cells; host or cells: Human Jurkat cells (endogenous) or CHO cells stably transfected with hKv1.3
Format: cell-based
Protocol: Potency of compounds to inhibit the human Kv1.3 ion channel was determined as follows:
EC50 values for inhibition of Kv1.3 currents were determined by the method according to Schmitz et al (2005) Molecular Pharmacology 68, 1254-1270 with the following differences: • 1. Human Jurkat cells (which endogenously express hKv1.3) or Chinese Hamster Ovary (CHO) cells stably transfected with hKv1.3 were used in place of transfected rat L929 cells. • 2. All electrophysiology was performed using planar patch clamp (Port-A-Patch, Nanion Technologies Gmbh, Munich) in contrast to conventional patch clamp. • 3. EC50 values shown were determined from averaged dose response data obtained from 3 or more cells.

T1 sequence (P22001 whole entry): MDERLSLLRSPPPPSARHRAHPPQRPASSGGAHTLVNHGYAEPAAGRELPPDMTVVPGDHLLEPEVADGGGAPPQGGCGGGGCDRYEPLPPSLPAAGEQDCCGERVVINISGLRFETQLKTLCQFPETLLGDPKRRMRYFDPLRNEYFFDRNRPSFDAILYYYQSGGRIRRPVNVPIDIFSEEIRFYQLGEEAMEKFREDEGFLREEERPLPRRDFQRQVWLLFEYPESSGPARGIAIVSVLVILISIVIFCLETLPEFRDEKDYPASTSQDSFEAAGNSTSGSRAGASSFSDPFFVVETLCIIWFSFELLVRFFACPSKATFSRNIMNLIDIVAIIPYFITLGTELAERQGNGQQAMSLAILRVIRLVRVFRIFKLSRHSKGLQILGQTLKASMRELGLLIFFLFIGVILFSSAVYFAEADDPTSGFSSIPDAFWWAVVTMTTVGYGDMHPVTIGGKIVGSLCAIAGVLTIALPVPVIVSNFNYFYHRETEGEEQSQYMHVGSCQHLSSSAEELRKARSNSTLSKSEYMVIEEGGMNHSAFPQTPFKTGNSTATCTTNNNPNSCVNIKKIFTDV

Question: With `COc1c(Cl)c(C)c(C(C)=O)c(OCCN2CCOCC2)c1OCCCc1ccc(F)cc1` [Example 1f, 1-(3-Chloro-5-(3-(4-fluorophenyl)propoxy)-4-methoxy-2-methyl-6-(2-morpholinoethoxy)phenyl)ethanone] as the molecule, how does the pEC50 read?
Answer: 6.82 to 7.30

Question: `COc1c(Cl)c(C)c(C(C)=O)c(OCCNC2CCCC2)c1OCCCc1ccc(F)cc1` [Example 2, 1-(3-Chloro-6-(cyclopentylamino)ethoxy)-5-(3-(4-fluorophenyl)propoxy-4-methoxy-2-methylphenyl)ethanone] was tested. Which pEC50 did it give?
Answer: > 7.30

Question: `COc1c(C)c(C)c(C(C)=O)c(OCCN2CCOCC2)c1OCCCc1ccc(F)cc1` [Example 3c, 1-[3-[3-(4-Fluoro-phenyl)-propoxy]-4-methoxy-5,6-dimethyl-2-(2-morpholin-4-yl-ethoxy)-phenyl]-ethanone] was tested. Which pEC50 did it give?
Answer: 6.82 to 7.30

Question: With `COc1c(C)c(C)c(C(C)=O)c(OCCc2ccccn2)c1OCCC(C)c1ccc(F)cc1` (stereo not drawn) [Example 4f, 1-[3-[3-(4-Fluoro-phenyl)-butoxy]-4-methoxy-5,6-dimethyl-2-(2-pyridin-2-yl-ethoxy)-phenyl]-ethanone] as the molecule, how does the pEC50 read?
Answer: > 7.30

Question: With `COc1c(C)c(C)c(C(C)=O)c(OCCN2CCOCC2)c1OCCC(C)c1ccc(F)cc1` (stereo not drawn) [Example 5, 1-[3-[3-(4-Fluoro-phenyl)-butoxy]-4-methoxy-5,6-dimethyl-2-(2-morpholin-4-yl-ethoxy)-phenyl]-ethanone] as the molecule, how does the pEC50 read?
Answer: > 7.30

Question: How did the pEC50 turn out when `COc1c(C)c(C)c(C(C)=O)c(OCCNC2CCCC2)c1OCCC(C)c1ccc(F)cc1` (stereo not drawn) [Example 6, 1-{2-(2-Cyclopentylamino-ethoxy)-3-[3-(4-fluoro-phenyl)-butoxy]-4-methoxy-5,6-dimethyl-phenyl}-ethanone] was run?
Answer: > 7.30

Question: `COc1c(Cl)c(C)c(C(C)=O)c(OCCNC2CCCC2)c1OCCC(C)c1ccc(F)cc1` (stereo not drawn) [Example 9, 1-[3-Chloro-6-(2-cyclopentylamino-ethoxy)-5-[3-(4-fluoro-phenyl)-butoxy]-4-methoxy-2-methyl-phenyl]-ethanone] was tested. Which pEC50 did it give?
Answer: 6.82 to 7.30

Question: How did the pEC50 turn out when `COc1c(Cl)c(C)c(C(C)=O)c(OCCN2CCCCC2)c1OCCC(C)c1ccc(F)cc1` (stereo not drawn) [Example 10, 1-[3-Chloro-5-[3-(4-fluoro-phenyl)-butoxy]-4-methoxy-2-methyl-6-(2-piperidin-1-yl-ethoxy)-phenyl]-ethanone] was run?
Answer: > 7.30

Question: With `COc1c(Cl)c(C)c(C(C)=O)c(OCCN2CCC(F)CC2)c1OCCC(C)c1ccc(F)cc1` (stereo not drawn) [Example 11, 1-{3-Chloro-5-[3-(4-fluoro-phenyl)-butoxy]-6-[2-(4-fluoro-piperidin-1-yl)-ethoxy]-4-methoxy-2-methyl-phenyl}-ethanone] as the molecule, how does the pEC50 read?
Answer: 6.82 to 7.30

Question: `COc1c(Cl)c(C)c(C(C)=O)c(OCCN2CC[C@@H](F)C2)c1OCCC(C)c1ccc(F)cc1` (stereo partly drawn) [Example 12, 1-{3-Chloro-5-[3-(4-fluoro-phenyl)-butoxy]-6-[2-(R-3-fluoro-pyrrolidin-1-yl)-ethoxy]-4-methoxy-2-methyl-phenyl}-ethanone] was tested. Which pEC50 did it give?
Answer: > 7.30

Question: `COc1c(Cl)c(C)c(C(C)=O)c(OCc2ccccn2)c1OCCC(C)c1ccc(F)cc1` (stereo not drawn) [Example 13, 1-[3-Chloro-5-[3-(4-fluoro-phenyl)-butoxy]-4-methoxy-2-methyl-6-(pyridin-2-ylmethoxy)-phenyl]-ethanone] was tested. Which pEC50 did it give?
Answer: 6.52 to 6.82

Question: With `COc1c(Cl)c(C)c(C(C)=O)c(OCCN2CCC(O)CC2)c1OCCC(C)c1ccc(F)cc1` (stereo not drawn) [Example 14, 1-{3-Chloro-5-[3-(4-fluoro-phenyl)-butoxy]-6-[2-(4-hydroxy-piperidin-1-yl)-ethoxy]-4-methoxy-2-methyl-phenyl}-ethanone] as the molecule, how does the pEC50 read?
Answer: 6.82 to 7.30

Question: With `COc1c(Cl)c(C)c(C(C)=O)c(OCCN2CCC(=O)CC2)c1OCCC(C)c1ccc(F)cc1` (stereo not drawn) [Example 15, 1-{3-Chloro-5-[3-(4-fluoro-phenyl)-butoxy]-6-[2-(4-oxo-piperidin-1-yl)-ethoxy]-4-methoxy-2-methyl-phenyl}-ethanone] as the molecule, how does the pEC50 read?
Answer: > 7.30

Question: With `COc1c(Cl)c(C)c(C(C)=O)c(OCCN2CCC(F)(F)CC2)c1OCCC(C)c1ccc(F)cc1` (stereo not drawn) [Example 16, 1-{3-Chloro-6-[2-(4,4-difluoro-piperidin-1-yl)-ethoxy]-5-[3-(4-fluoro-phenyl)-butoxy]-4-methoxy-2-methyl-phenyl}-ethanone] as the molecule, how does the pEC50 read?
Answer: 6.82 to 7.30

Question: `COc1c(Cl)c(C)c(C(C)=O)c(OCCN2CCCC(F)(F)C2)c1OCCC(C)c1ccc(F)cc1` (stereo not drawn) [Example 17, 1-{3-Chloro-6-[2-(3,3-difluoro-piperidin-1-yl)-ethoxy]-5-[3-(4-fluoro-phenyl)-butoxy]-4-methoxy-2-methyl-phenyl}-ethanone] was tested. Which pEC50 did it give?
Answer: > 7.30

Question: `COc1c(Cl)c(C)c(C(C)=O)c(OCCOc2cnccn2)c1OCCC(C)c1ccc(F)cc1` (stereo not drawn) [Example 18b, 1-{3-Chloro-5-[3-(4-fluoro-phenyl)-butoxy]-4-methoxy-2-methyl-6-[2-(pyrazin-2-yloxy)-ethoxy]-phenyl}-ethanone] was tested. Which pEC50 did it give?
Answer: > 7.30

Question: `COc1c(Cl)c(C)c(C(C)=O)c(OCCn2cncn2)c1OCCC(C)c1ccc(F)cc1` (stereo not drawn) [Example 19, 1-[3-Chloro-5-[3-(4-fluorophenyl)-butoxy]-4-methoxy-2-methyl-6-(2-[1,2,4]-triazol-1-yl-ethoxy)-phenyl]-ethanone] was tested. Which pEC50 did it give?
Answer: 6.82 to 7.30

Question: `COc1c(Cl)c(C)c(C(C)=O)c(OCCN2CC(F)(F)C2)c1OCCC(C)c1ccc(F)cc1` (stereo not drawn) [Example 20, 1-{3-Chloro-6-[2-(3,3-difluoro-azetidin-1-yl)-ethoxy]-5-[3-(4-fluoro-phenyl)-butoxy]-4-methoxy-2-methyl-phenyl}-ethanone] was tested. Which pEC50 did it give?
Answer: 6.82 to 7.30

Question: How did the pEC50 turn out when `COc1c(Cl)c(C)c(C(C)=O)c(OCCCN2CCOCC2)c1OCCC(C)c1ccc(F)cc1` (stereo not drawn) [Example 22b, 1-[3-Chloro-5-[3-(4-fluoro-phenyl)-butoxy]-4-methoxy-2-methyl-6-(3-morpholin-4-yl-propoxy)-phenyl]-ethanone] was run?
Answer: > 7.30

Question: With `COc1c(Cl)c(C)c(C(C)=O)c(OCCCN2CCS(=O)(=O)CC2)c1OCCC(C)c1ccc(F)cc1` (stereo not drawn) [Example 23, 1-{3-Chloro-6-[3-(1,1-dioxo-thiomorpholin-4-yl)-propoxy]-5-[3-(4-fluoro-phenyl)-butoxy]-4-methoxy-2-methyl-phenyl}-ethanone] as the molecule, how does the pEC50 read?
Answer: > 7.30

Question: With `COc1c(Cl)c(C)c(C(C)=O)c(OCCCN2CC[S+]([O-])CC2)c1OCCC(C)c1ccc(F)cc1` (stereo not drawn) [Example 24, 1-{3-Chloro-5-[3-(4-fluoro-phenyl)-butoxy]-4-methoxy-2-methyl-6-[3-(1-oxo-thiomorpholin-4-yl)-propoxy]-phenyl}-ethanone] as the molecule, how does the pEC50 read?
Answer: 6.82 to 7.30

Question: `COc1c(Cl)c(C)c(C(C)=O)c(OCCN2CCOCC2)c1CCCCc1ccccc1` [Example 26b, 1-(3-Chloro-4-methoxy-2-methyl-6-(2-morpholinoethoxy)-5-5(4-phenylbutyl)phenyl)ethanone] was tested. Which pEC50 did it give?
Answer: > 7.30

Question: How did the pEC50 turn out when `COc1c(Cl)c(C)c(C(C)=O)c(OCCc2ccccn2)c1CCCCc1ccccc1` [Example 27, 1-(3-Chloro-4-methoxy-2-methyl-5-(4-phenylbutyl)-6-(2-(pyridine-2-yl)ethoxy)phenyl)ethanone] was run?
Answer: > 7.30

Question: `COc1c(Cl)c(C)c(C(C)=O)c(OCCN2CCOCC2)c1CCCC(C)c1ccc(F)cc1` (stereo not drawn) [Example 31b, 1-(3-Chloro-5-(4-(4-fluorophenyl)pentyl)-4-methoxy-2-methyl-6-(2-morpholinoethoxy)phenyl)ethanone] was tested. Which pEC50 did it give?
Answer: 6.82 to 7.30

Question: `COc1c(Cl)c(C)c(C(C)=O)c(OCCc2ccccn2)c1CCCC(C)c1ccc(F)cc1` (stereo not drawn) [Example 32, 1-[3-Chloro-5-[4-(4-fluoro-phenyl)-pentyl]-4-methoxy-2-methyl-6-(2-pyridin-2-yl-ethoxy)-phenyl]-ethanone] was tested. Which pEC50 did it give?
Answer: > 7.30

Question: `COc1cc(C)c(C(C)=O)c(O)c1OCCCc1ccccc1` [Example 33a, 1-(3-(3-(phenyl)propoxy)-2-hydroxy-4-methoxy-6-methylphenyl)ethanone, reference compound] was tested. Which pEC50 did it give?
Answer: < 6.52

Question: How did the pEC50 turn out when `COc1cc(C)c(C(C)=O)c(OCCN2CCOCC2)c1OCCCc1ccccc1` [Example 33b, 1-[4-Methoxy-6-methyl-2-(2-morpholin-4-yl-ethoxy)-3-(3-phenyl-propoxy)-phenyl]-ethanone] was run?
Answer: 6.52 to 6.82

Question: `COc1c(Cl)c(C)c(C(C)=O)c(OCCNC2CCCC2)c1OCCCc1ccccc1` [Example 34c, 1-[3-Chloro-6-(2-cyclopentylamino-ethoxy)-4-methoxy-2-methyl-5-(3-phenyl-propoxy)-phenyl]-ethanone] was tested. Which pEC50 did it give?
Answer: 6.82 to 7.30

Question: How did the pEC50 turn out when `COc1c(Cl)c(C)c(C(C)=O)c(OCCN2CC(F)(F)C2)c1OCCCc1ccccc1` [Example 35, 1-[3-Chloro-6-[2-(3,3-difluoro-azetidin-1-yl)-ethoxy]-4-methoxy-2-methyl-5-(3-phenyl-propoxy)-phenyl]-ethanone] was run?
Answer: < 6.52

Question: `COc1c(Cl)c(C)c(C(C)=O)c(OCCN2CCSCC2)c1OCCCc1ccccc1` [Example 36, 1-[3-Chloro-4-methoxy-2-methyl-5-(3-phenyl-propoxy)-6-(2-thiomorpholin-4-yl-ethoxy)-phenyl]-ethanone] was tested. Which pEC50 did it give?
Answer: 6.82 to 7.30

Question: `COc1c(Cl)c(C)c(C(C)=O)c(OCCN2CCC(F)(F)C2)c1OCCCc1ccccc1` [Example 37, 1-[3-Chloro-6-[2-(3,3-difluoro-pyrrolidin-1-yl)-ethoxy]-4-methoxy-2-methyl-5-(3-phenyl-propoxy)-phenyl]-ethanone] was tested. Which pEC50 did it give?
Answer: 6.52 to 6.82

Question: With `COc1c(Cl)c(C)c(C(C)=O)c(OCCN2CC(O)C2)c1OCCCc1ccccc1` [Example 38, 1-[3-Chloro-6-[2-(3-hydroxy-azetidin-1-yl)-ethoxy]-4-methoxy-2-methyl-5-(3-phenyl-propoxy)-phenyl]-ethanone] as the molecule, how does the pEC50 read?
Answer: < 6.52

Question: How did the pEC50 turn out when `COc1c(Cl)c(C)c(C(C)=O)c(OCCN2CC(=O)C2)c1OCCCc1ccccc1` [Example 39, 1-[3-Chloro-6-[2-(3-oxo-azetidin-1-yl)-ethoxy]-4-methoxy-2-methyl-5-(3-phenyl-propoxy)-phenyl]-ethanone] was run?
Answer: < 6.52
